In one experiment the target is T1, EPHB4 (Homo sapiens, UniProt P54760).
T1 sequence (P54760 16-987): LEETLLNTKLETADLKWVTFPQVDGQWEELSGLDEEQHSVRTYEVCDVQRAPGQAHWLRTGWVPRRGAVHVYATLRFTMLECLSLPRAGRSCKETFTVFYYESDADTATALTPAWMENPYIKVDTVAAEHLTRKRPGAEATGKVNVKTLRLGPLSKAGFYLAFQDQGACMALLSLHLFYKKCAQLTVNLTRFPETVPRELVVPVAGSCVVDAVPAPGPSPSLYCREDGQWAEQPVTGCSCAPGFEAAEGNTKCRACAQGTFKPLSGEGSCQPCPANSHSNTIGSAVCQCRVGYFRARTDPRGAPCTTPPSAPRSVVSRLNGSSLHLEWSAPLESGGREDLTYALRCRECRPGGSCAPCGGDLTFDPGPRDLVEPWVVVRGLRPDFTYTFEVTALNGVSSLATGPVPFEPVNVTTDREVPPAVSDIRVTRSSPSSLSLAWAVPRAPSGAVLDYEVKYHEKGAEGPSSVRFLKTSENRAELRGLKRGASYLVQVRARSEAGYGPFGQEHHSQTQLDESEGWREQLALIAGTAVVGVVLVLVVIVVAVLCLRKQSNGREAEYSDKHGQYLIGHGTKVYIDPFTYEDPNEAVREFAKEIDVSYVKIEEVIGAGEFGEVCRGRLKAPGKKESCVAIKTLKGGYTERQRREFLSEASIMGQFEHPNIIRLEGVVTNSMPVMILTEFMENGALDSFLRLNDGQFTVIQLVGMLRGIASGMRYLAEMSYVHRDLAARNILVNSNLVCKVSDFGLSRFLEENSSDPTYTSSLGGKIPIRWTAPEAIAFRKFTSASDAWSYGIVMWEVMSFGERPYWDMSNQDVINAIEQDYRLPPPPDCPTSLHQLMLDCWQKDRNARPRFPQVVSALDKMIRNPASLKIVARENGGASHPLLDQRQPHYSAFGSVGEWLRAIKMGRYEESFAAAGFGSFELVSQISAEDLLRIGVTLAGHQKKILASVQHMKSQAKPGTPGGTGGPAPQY
Description: biochemical. As to conditions: read-out: % enzyme activity, 1 μM; Run 1, Run 2.

The next experiment addresses CSK (Homo sapiens, UniProt P41240). As to the kind of experiment: biochemical. The note with it: read-out: % enzyme activity, 1 μM; Run 1, Run 2.
The target of another experiment is MSK2/RPS6KA4 (Homo sapiens, UniProt O75676). The note with it: 1 μM; Run 1, Run 2.
For a further experiment, the target named is PAK1 (Homo sapiens, UniProt Q13153). The note with it: 1 μM; Run 1, Run 2.
A further experiment deals with CDK2/Cyclin A1 (Homo sapiens, UniProt P24941). As to conditions: 1 μM; Run 1, Run 2.
In the next experiment the target is T2, KSR1 (Homo sapiens, UniProt Q8IVT5).
T2 sequence (Q8IVT5 1-923): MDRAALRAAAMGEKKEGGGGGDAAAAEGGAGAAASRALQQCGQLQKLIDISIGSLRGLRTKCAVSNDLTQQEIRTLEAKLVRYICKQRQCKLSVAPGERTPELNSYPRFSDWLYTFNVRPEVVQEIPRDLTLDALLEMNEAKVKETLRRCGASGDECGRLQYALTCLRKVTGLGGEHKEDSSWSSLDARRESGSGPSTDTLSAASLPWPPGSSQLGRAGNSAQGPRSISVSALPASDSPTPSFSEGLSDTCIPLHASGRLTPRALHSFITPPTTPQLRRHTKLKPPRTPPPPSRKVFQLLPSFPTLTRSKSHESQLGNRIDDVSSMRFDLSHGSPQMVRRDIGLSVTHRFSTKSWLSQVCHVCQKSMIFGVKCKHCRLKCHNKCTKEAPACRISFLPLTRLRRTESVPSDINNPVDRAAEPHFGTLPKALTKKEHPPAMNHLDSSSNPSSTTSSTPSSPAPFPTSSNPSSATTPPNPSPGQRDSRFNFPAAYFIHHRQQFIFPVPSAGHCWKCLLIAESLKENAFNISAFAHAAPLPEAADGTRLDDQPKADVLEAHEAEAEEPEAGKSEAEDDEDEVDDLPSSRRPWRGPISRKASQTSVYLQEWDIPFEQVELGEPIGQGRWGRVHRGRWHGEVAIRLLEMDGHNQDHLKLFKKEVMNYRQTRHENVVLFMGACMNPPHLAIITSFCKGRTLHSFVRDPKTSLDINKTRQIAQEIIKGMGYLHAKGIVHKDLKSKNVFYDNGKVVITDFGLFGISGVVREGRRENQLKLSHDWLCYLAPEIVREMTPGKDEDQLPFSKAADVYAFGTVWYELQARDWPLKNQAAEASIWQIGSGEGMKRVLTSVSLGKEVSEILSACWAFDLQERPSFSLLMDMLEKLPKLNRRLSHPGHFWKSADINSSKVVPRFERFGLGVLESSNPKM
As to conditions: 1 μM; Run 1, Run 2.

The next experiment has as its target CK1d (Homo sapiens, UniProt P48730). The note with it: 1 μM; Run 1, Run 2.
In another experiment the target is GSK3b (Homo sapiens, UniProt P49841). As to conditions: 1 μM; Run 1, Run 2.
The target of the next experiment is RET (Homo sapiens, UniProt P07949). The note with it: 1 μM; Run 1, Run 2.
In another experiment the target is PEAK1 (Homo sapiens, UniProt Q9H792). As to conditions: 1 μM; Run 1, Run 2.
Another experiment addresses PKAcb (Homo sapiens, UniProt P22694). The note with it: 1 μM; Run 1, Run 2.
The target in the next experiment is T3, TSSK2 (Homo sapiens, UniProt Q96PF2).
T3 sequence (Q96PF2 1-358): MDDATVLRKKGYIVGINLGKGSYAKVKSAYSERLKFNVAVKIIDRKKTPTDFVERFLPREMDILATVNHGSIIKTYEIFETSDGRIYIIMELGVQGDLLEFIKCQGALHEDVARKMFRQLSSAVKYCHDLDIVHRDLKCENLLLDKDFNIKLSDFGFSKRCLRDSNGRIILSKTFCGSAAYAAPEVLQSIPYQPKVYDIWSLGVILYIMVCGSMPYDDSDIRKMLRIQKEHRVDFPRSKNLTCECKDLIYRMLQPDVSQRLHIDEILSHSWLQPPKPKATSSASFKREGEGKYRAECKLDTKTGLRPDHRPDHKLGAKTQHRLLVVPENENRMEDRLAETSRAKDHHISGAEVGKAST
Description: biochemical. As to conditions: read-out: % enzyme activity, 1 μM; Run 1, Run 2.

Sequence of PEAK1 (Q9H792 whole entry): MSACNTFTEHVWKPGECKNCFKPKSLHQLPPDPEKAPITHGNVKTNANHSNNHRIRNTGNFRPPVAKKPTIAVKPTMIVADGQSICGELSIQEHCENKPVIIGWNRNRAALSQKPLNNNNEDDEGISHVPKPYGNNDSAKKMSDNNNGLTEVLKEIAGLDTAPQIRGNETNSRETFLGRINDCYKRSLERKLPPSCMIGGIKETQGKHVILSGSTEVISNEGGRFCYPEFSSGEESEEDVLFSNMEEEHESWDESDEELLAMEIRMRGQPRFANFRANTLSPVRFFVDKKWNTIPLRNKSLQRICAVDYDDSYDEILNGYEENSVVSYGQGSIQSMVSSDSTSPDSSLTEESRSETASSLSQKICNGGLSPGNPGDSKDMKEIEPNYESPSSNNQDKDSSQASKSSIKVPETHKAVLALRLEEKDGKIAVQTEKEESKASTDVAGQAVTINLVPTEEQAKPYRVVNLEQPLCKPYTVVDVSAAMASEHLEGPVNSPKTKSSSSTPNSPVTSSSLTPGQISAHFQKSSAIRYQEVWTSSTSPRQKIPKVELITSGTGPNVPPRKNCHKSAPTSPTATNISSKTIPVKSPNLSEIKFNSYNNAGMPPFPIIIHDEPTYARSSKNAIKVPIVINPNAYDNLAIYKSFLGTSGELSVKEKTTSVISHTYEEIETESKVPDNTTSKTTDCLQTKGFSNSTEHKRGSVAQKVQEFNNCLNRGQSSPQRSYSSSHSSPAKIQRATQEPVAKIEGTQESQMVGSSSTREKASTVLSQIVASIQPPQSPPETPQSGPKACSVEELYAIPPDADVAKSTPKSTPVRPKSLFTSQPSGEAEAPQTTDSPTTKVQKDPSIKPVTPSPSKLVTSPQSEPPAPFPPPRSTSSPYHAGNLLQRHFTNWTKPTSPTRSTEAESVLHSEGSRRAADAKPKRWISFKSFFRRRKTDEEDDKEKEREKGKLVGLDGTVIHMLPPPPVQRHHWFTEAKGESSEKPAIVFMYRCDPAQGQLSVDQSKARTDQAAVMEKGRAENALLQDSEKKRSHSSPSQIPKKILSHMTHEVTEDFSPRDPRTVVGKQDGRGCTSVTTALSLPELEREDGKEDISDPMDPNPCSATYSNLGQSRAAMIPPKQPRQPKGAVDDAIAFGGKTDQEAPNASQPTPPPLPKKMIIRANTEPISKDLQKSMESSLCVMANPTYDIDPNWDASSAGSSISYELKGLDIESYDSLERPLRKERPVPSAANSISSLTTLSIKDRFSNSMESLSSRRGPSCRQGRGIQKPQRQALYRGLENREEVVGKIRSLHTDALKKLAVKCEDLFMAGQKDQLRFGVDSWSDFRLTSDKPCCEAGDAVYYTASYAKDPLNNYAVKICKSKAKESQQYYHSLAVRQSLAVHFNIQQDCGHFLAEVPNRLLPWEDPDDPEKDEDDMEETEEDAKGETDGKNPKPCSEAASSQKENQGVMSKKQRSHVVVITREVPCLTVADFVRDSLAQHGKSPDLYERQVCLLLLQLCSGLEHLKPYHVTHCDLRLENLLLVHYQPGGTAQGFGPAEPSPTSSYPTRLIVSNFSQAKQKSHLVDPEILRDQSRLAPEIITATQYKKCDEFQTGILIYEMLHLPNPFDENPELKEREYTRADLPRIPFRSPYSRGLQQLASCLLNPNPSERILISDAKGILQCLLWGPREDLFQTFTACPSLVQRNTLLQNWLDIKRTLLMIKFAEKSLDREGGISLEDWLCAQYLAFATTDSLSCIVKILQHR
Sequence of MSK2/RPS6KA4 (O75676 whole entry): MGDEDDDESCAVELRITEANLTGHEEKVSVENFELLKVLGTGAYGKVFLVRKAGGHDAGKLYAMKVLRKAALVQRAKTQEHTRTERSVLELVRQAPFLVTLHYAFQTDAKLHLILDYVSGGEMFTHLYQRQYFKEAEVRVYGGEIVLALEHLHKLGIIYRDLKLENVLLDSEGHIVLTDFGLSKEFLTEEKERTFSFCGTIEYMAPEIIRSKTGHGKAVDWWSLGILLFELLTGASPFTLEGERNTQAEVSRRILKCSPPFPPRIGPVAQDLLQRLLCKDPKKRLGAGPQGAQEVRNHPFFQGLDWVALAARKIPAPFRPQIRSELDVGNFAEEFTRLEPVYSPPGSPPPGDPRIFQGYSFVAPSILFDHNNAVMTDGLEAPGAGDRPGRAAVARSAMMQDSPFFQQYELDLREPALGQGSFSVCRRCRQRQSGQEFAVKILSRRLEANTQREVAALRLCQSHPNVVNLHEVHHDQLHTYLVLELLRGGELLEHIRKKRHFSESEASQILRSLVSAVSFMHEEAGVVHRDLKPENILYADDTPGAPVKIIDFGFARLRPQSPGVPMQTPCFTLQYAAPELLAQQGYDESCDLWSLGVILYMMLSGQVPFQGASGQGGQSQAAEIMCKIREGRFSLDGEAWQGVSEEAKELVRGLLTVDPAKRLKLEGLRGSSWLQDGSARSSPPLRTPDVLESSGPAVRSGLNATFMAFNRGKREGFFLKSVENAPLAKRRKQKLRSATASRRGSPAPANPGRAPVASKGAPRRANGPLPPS
Sequence of CK1d (P48730 whole entry): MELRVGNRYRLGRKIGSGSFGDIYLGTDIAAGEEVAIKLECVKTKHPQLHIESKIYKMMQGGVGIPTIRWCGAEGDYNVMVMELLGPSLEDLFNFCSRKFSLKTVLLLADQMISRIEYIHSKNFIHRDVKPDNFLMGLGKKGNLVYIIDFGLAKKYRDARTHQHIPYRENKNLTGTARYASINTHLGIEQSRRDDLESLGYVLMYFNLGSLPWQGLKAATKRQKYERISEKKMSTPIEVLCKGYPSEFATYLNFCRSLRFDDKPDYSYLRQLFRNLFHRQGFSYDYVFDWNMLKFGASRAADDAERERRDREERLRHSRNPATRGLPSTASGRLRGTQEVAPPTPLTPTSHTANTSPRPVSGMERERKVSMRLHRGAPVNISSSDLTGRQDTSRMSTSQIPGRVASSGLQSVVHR
Sequence of CSK (P41240 whole entry): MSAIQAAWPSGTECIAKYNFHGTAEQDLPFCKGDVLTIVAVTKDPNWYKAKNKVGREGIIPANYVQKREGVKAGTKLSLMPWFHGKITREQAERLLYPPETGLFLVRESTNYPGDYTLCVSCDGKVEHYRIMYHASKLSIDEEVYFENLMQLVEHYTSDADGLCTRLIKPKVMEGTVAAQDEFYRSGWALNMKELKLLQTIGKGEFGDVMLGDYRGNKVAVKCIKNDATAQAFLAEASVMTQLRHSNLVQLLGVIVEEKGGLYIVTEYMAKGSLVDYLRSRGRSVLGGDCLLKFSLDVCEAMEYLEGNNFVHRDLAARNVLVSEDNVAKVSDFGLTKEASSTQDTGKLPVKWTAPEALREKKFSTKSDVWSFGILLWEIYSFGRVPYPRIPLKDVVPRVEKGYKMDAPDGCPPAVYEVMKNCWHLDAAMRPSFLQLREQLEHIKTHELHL
Sequence of GSK3b (P49841 whole entry): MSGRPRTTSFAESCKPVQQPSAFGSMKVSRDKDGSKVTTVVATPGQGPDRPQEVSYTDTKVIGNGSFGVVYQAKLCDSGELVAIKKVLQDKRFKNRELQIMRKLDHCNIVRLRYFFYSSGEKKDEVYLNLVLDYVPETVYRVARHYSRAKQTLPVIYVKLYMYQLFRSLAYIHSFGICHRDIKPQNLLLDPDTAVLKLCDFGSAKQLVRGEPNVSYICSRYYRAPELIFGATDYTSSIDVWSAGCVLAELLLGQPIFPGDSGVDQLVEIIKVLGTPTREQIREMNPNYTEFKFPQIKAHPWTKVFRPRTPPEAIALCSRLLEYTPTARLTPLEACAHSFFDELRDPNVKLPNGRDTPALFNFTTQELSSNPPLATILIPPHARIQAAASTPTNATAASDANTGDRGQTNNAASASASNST
Sequence of PAK1 (Q13153 whole entry): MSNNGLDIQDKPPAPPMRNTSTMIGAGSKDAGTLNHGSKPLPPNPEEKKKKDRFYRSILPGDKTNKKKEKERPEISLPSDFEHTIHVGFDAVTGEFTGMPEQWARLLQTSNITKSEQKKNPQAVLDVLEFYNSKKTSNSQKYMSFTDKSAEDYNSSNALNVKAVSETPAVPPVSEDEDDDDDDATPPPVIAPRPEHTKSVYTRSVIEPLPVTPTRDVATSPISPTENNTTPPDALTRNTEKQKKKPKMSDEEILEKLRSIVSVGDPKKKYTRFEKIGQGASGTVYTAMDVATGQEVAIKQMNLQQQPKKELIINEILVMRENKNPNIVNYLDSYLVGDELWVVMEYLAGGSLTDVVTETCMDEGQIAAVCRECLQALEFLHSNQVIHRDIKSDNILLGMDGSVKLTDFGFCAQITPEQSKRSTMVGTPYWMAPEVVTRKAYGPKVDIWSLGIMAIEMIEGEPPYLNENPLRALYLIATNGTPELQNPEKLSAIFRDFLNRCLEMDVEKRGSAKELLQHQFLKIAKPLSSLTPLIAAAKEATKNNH

Take `COc1cc(-c2cncc(-c3ccc(N4CCN(C)CC4)cc3)c2C)cc(F)c1C(N)=O` [Compound 26a, 2-Fluoro-6-methoxy-4-(4-methyl-5-(4-(4-methylpiperazin-1-yl)phenyl)pyridin-3-yl)benzamide]: the values for the remaining activity at 1 µM on EPHB4, at CSK and at TSSK2 were 94.7%, 99.5% and 100%, respectively. Moreover, the “% enzyme activity” value amounted to 96.56% on MSK2/RPS6KA4; 102.29% on PAK1; 99.67% on CDK2/Cyclin A1; 93.83% at KSR1; 94.27% at CK1d; 84.98% on GSK3b. Also, the “% enzyme activity” value is given as 94.34% at RET, 97.59% at PEAK1 and 95.19% on PKAcb.

In the case of `COc1cc(-c2cncc(-c3ccc(N4C[C@@H](C)N(C)[C@@H](C)C4)cc3)c2C)cc(F)c1C(N)=O` [Compound 26c, 2-Fluoro-6-methoxy-4-(4-methyl-5-(4-((3R,5S)-3,4,5-trimethylpiperazin-1-yl)phenyl)pyridin-3-yl)benzamide], the figures for the remaining activity at 1 µM at EPHB4, on CSK and at TSSK2 were 91.5%, 104% and 100%, respectively. Besides, the “% enzyme activity” value on MSK2/RPS6KA4 is given as 92.01%; on PAK1 it was 100.98%; on CDK2/Cyclin A1 it was 97.14%; on KSR1, 95.91%; at CK1d, 108.05%; at GSK3b, 88.83%. Further, the “% enzyme activity” value was 93.64% at RET, 95.56% on PEAK1 and 96.20% at PKAcb.

(Values after paper PMC8213057, “Targeting ALK2: An Open Science Approach to Developing Therapeutics for the Treatment of Diffuse Intrinsic Pontine Glioma” (Journal of Medicinal Chemistry, 2020).)
